Experiments:
human PDHK2 (hPDHK2) = human PDHK2 (hPDHK2) (Homo sapiens (Human), UniProt Q15119); assay: Inhibitory action of PDHK2 activity in vitro (residual PDH activity after kinase reaction); assay type: biochemical; settings: monohydrate
Experimental: (§1) The inhibitory action of PDHK activity was assessed indirectly by measuring the residual PDH activity after kinase reaction in the presence of a test compound.
In the case of human PDHK2 (hPDHK2, Genbank Accession No. BC040478.1), modified hPDHK2 cDNA wherein FLAG-Tag sequence was added to the N terminus of hPDHK2 cDNA clone (pReceiver-M01/PDK2-GeneCopoeia) was prepared by PCR and cloned into a vector (pET17b-Novagen). The recombinant construct was transformed into Escherichia coli (DH5α-TOYOBO). The recombinant clones were identified, and plasmid DNA was isolated and subjected to the DNA sequence analysis. One clone which had the expected nucleic acid sequence was selected for expression work.
For expression of hPDHK2 activity, Escherichia coli strain BL21(DE3) cells (Novagen) were transformed with the pET17b vector containing modified hPDHK2 cDNA. The Escherichia coli were grown to an optical density 0.6 ([…]) at 30° C. Protein expression was induced by the addition of 500 μmol/L isopropyl-β-thiogalactopyranoside. The Escherichia coli were cultured at 30° C. for 5 hr and harvested by centrifugation. Resuspension of the Escherichia coli paste was disrupted by a microfluidizer. FLAG-Tagged protein was purified using FLAG affinity gel. […]
0.05 U/mL PDH and 0.8 μg/mL hPDHK2 were mixed in a buffer (50 mmol/L 3-morpholinopropanesulfonic acid (pH 7.0), 20 mmol/L dipotassium hydrogen phosphate, 60 mmol/L potassium chloride, 2 mmol/L magnesium chloride, 0.4 mmol/L EDTA, and 0.2% Pluronic F-68, 2 mmol/L dithiothreitol), and the mixture was incubated at 4° C. overnight to obtain a PDH/hPDHK2 complex. […] The mixture was incubated at room temperature for 90 min, and the residual PDH activity was measured. The absorbance at 340 nm before and after PDH reaction was measured using a microplate reader to detect NADH produced by the PDH reaction. The hPDHK2 inhibition rate (%) of the test compound was calculated from the formula [{(PDH activity of test compound−PDH activity of control)/PDH activity of blank−PDH activity of control)}×100].

human PDHK1 (hPDHK1) = human PDHK1 (hPDHK1) (Homo sapiens (Human), UniProt Q15118); assay: Inhibitory action of PDHK1 activity in vitro (residual PDH activity after kinase reaction); assay type: biochemical
Experimental: as §1
The recombinant construct was transformed into Escherichia coli (DH5α-TOYOBO). The recombinant clones were identified, and plasmid DNA was isolated and subjected to the DNA sequence analysis. One clone which had the expected nucleic acid sequence was selected for expression work.
The Escherichia coli were grown to an optical density 0.6 ([…]) at 30° C. Protein expression was induced by the addition of 500 μmol/L isopropyl-β-thiogalactopyranoside. The Escherichia coli were cultured at 30° C. for 5 hr and harvested by centrifugation. Resuspension of the Escherichia coli paste was disrupted by a microfluidizer.
The eluted fractions containing FLAG-Tagged protein were pooled, dialyzed against 20 mmol/L HEPES-NaOH, 150 mmol/L sodium chloride, 0.5 mmol/L ethylenediamine tetraacetic acid (EDTA), 1% ethylene glycol, and 0.1% Pluronic F-68 (pH 8.0), and preserved at −80° C.
The mixture was incubated at room temperature for 90 min, and the residual PDH activity was measured.
The absorbance at 340 nm before and after PDH reaction was measured using a microplate reader to detect NADH produced by the PDH reaction.

liver PDH activity = assay: Ex vivo PDH activation assay, liver; assay type: in vivo, Sprague-Dawley rats; settings: non-fasting SD rats, vehicle 13 ± 3, mean ± S.D. (n = 3)
Experimental: (§2) The action of test compound on tissue PDH activity was evaluated. NADH production was detected via p-iodonitrotetrazolium violet (INT)-coupled system to measure PDH activity.
(§3) Normal male Sprague-Dawley rats were randomly allocated to the vehicle group and the test compound groups. The vehicle (0.5% aqueous methylcellulose solution, 5 mL/kg) or the test compound was orally administered to the rats. At 5 or 20 hr after administration, the rats were anesthetized with an intraperitoneal injection of sodium pentobarbital (60 mg/kg), and liver slices and epididymal adipose tissues were collected.
(§4) To the liver slices were rapidly added 9 volumes of ice-cold homogenization buffer (0.25 mol/L sucrose, 5 mmol/L tris(hydroxymethyl)aminomethane hydrochloride (pH 7.5), 2 mmol/L EDTA), and the mixtures were homogenized using a Polytron homogenizer. The homogenates were centrifuged at 600×g, 4° C. for 10 min to obtain the supernatant. The supernatants (1 mL) were centrifuged at 16,000×g, 4° C. for 10 min to collect the precipitates. The precipitates were washed by resuspension in the homogenization buffer (1 mL) and centrifuged in the same manner. The precipitates were frozen with liquid nitrogen and stored at −80° C. as the liver mitochondrial fraction.
(§5) The mitochondrial fractions were thawed and suspended with the sample buffer (0.25 mol/L sucrose, 20 mmol/L tris(hydroxymethyl)aminomethane hydrochloride (pH 7.5), 50 mmol/L potassium chloride, and 1 mL/L 4-(1,1,3,3-tetramethylbutyl)phenyl-polyethylene glycol (Triton X-100)). Active PDH activity (PDHa activity) and total PDH activity (PDHt activity) were measured to evaluate the PDH activity. For the measurement of the PDHt activity, equal amounts of the mitochondrial suspension and the activation buffer (0.25 mol/L sucrose, 20 mmol/L tris(hydroxymethyl)aminomethane hydrochloride (pH 7.5), 50 mmol/L potassium chloride, 1 mL/L Triton X-100, 4 mmol/L calcium chloride, 40 mmol/L magnesium chloride, 10 mmol/L sodium dichloroacetate) were mixed, and the mixtures were incubated at 37° C. for 10 min. Forty microliters of the mitochondrial suspensions diluted with a sample buffer were added to a 96-well microplate for activity measurement and blank measurement. Then 180 μL of the reaction mixture (0.056 mmol/L potassium phosphate buffer (pH 7.5), 5.6 mmol/L DL-carnitine, 2.8 mmol/L NAD, 0.22 mmol/L thiamin pyrophosphate, 0.11 mmol/L Coenzyme A, 1.1 mL/L Triton X-100, 1.1 mmol/L magnesium chloride, 1.1 g/L bovine serum albumin, 0.67 mmol/L INT, 7.2 μmol/L phenazine methosulfate, 28 mmol/L sodium oxamate) was added to each well, and then 20 μL of 50 mmol/L sodium pyruvate for activity measurement or water for blank measurement were added. The mixtures were incubated at room temperature under shading. The absorbances at 500-750 nm, which were attributable to reduction of INT, the final electron acceptor, were measured using a microplate reader over time and the changes in the absorbance were calculated. The PDH activity was calculated by subtraction of the change in absorbance of the blank well from that of the activity measurement well. The percentage of the PDHa activity to the PDHt activity was calculated and taken as an index of the PDH activation.

[1] = system: adipose tissue PDH activity; assay: Ex vivo PDH activation assay, adipose tissue; assay type: in vivo, Sprague-Dawley rats; settings: non-fasting SD rats, vehicle 31 ± 10, mean ± S.D. (n = 3)
Experimental: as §2, §3
as §4, with “adipose tissues” for “liver slices”, “3” for “9”, “of an” for “of”, “buffer,” for “buffer (0.25 mol/L sucrose, 5 mmol/L tris(hydroxymethyl)aminomethane hydrochloride (pH 7.5), 2 mmol/L EDTA),”, “supernatants” for “supernatants (1 mL)”, “adipose tissue” for “liver”
as §5

[2] = Table 2, 5 hr after oral 3 mg/kg
[3] = Table 2, 20 hr after oral 3 mg/kg

human PDHK1 (hPDHK1), sequence (Q15118 29-436): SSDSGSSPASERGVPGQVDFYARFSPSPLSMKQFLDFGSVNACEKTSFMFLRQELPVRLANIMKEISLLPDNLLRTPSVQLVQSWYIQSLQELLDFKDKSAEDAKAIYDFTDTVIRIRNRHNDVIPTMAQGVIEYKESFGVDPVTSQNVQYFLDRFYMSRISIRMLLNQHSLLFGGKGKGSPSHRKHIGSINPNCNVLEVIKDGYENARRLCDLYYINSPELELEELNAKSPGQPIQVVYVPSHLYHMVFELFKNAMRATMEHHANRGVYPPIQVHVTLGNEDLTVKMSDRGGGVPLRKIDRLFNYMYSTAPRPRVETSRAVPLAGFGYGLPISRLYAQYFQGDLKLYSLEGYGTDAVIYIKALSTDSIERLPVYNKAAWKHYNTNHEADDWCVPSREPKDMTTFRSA

Compound: CC(C)(O)CCOc1cc(-c2cnn(C(C)(C)C(N)=O)c2)c2c(c1)[C@@](O)(C(F)(F)F)c1ccccc1-2 [Compound (2h), 2-{4-[(9R)-9-hydroxy-2-(3-hydroxy-3-methylbutyloxy)-9-(trifluoromethyl)-9H-fluoren-4-yl]-1H-pyrazol-1-yl}-2-methylpropanamide monohydrate]
- IC50 (human PDHK2 (hPDHK2)): 4.9 nM
- IC50 (human PDHK1 (hPDHK1)): 6.6 nM
- PDHa activity (% of PDHt activity) (liver PDH activity; [2]): 59 ± 6 % of PDHt activity
- PDHa activity (% of PDHt activity) (liver PDH activity; [3]): 31 ± 5 % of PDHt activity
- PDHa activity (% of PDHt activity) [1, 2]: 59 ± 2 % of PDHt activity
- PDHa activity (% of PDHt activity) [1, 3]: 44 ± 12 % of PDHt activity
